PubChem BioAssay AID2495 (Sanford-Burnham Center for Chemical Genomics, 2010)
pIC50: −log10 of the molar value.

Target: Kappa-type opioid receptor (Homo sapiens) (UniProt P41145)
Experiment: kappa opioid receptor blockade potency – cell-based, luminescence, set 2, SAR follow-up (AID 2495)
Conditions: KOR beta-arrestin recruitment, antagonist mode

Kappa-type opioid receptor (Homo sapiens), sequence (P41145 whole entry, looked up): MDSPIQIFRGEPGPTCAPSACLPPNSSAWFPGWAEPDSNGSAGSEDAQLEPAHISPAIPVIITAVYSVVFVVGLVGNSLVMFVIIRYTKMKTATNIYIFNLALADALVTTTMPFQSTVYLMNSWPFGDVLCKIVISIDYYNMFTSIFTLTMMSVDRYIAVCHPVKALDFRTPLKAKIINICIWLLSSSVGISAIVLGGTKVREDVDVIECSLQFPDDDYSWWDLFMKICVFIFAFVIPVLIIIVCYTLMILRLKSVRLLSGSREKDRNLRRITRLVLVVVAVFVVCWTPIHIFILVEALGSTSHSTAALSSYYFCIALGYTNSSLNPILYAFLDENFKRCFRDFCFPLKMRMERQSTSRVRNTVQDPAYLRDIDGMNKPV

CCc1ccc(S(=O)(=O)NCc2ccc(C(=O)NCCN(Cc3ccccc3)C(C)C)cc2)cc1 was tested, and the pIC50 was 5.95.
